Test results taken from patent publication US20250228239A1, “MOLECULES HAVING PESTICIDAL UTILITY, AND INTERMEDIATES, COMPOSITIONS, AND PROCESSES, RELATED THERETO” (priority 2024, published 2025).
Read-outs that look alike come from different tables or passages of the source.

How the values were obtained:
Assay type in all cases: in vivo
[1] = tested on: Beet Armyworm (Spodoptera exigua, LAPHEG); experiment: Bioassays on Beet Armyworm (BAW), 128-well diet tray assay; conditions: Spodoptera exigua, Beet Armyworm
Outline: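 Eight diet wells per compound were treated at 50 μg/cm^2 (acetone-water 90:10), dried, then infested with 1–5 second-instar larvae each. After five to seven days at 25 °C under 14:10 photoperiod, mortality was scored and averaged across wells.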

[2] = tested on: Cabbage Looper (Trichoplusia ni, TRIPNI); experiment: Bioassays on Cabbage Looper (CL), 128-well diet tray assay; conditions: Trichoplusia ni, Cabbage Looper
Outline: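 Test molecule was dissolved in 90:10 acetone-water, applied to artificial diet at 50 μg/cm^2 and allowed to dry. Second-instar larvae were then added, one to five per well, and trays held at 25° C for five to seven days before mortality was scored and averaged.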

[3] = tested on: Yellow Fever Mosquito (Aedes aegypti, AEDSAE); conditions: Yellow Fever Mosquito; for YFM: rating class; for YFM rating: Table ABC / ABC-DP rating
Outline: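 Larvae ~1 day old, in liver powder/water; compound from 4000 ppm DMSO stock diluted with water/acetone (90:10); 6 reps; lidded, RT, 3 d; mortality scored per well, rated.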

[4] = Table ABC / ABC-DP rating, read-out: BAW rating
[5] = Table ABC / ABC-DP rating, read-out: CL rating

| Compound | pest or weed control at 50 µg/cm2 ([1]; rating class, read-out: BAW) [%] | pest or weed control at 50 µg/cm2 ([2]; rating class, read-out: CL) [%] | YFM [3] | pest or weed control at 50 µg/cm2 [1, 4] [%] | pest or weed control at 50 µg/cm2 [2, 5] [%] | YFM rating [3] |
| --- | --- | --- | --- | --- | --- | --- |
| O=C(Nc1ccc(F)c(NC(=O)C(F)F)c1F)c1cc(NC(=O)[C@H]2[C@H](c3ccc(F)c(C(F)(F)F)c3)C2(Cl)Cl)c(F)cc1Cl [F1729, 2-Chloro-5-((1R,3R)-2,2-dichloro-3-(4-fluoro-3-(trifluoromethyl)phenyl)cyclopropane-1-carboxamido)-N-(3-(2,2-difluoroacetamido)-2,4-difluorophenyl)-4-fluorobenzamide] | 50 to 100 | 50 to 100 | A (80–100) | – | – | – |
| O=C(CCF)Nc1c(F)ccc(NC(=O)c2cc(NC(=O)[C@H]3[C@H](c4ccc(F)c(C(F)(F)F)c4)C3(Cl)Cl)ccc2Cl)c1F [F1735, 2-Chloro-5-((1R,3R)-2,2-dichloro-3-(4-fluoro-3-(trifluoromethyl)phenyl)cyclopropane-1-carboxamido)-N-(2,4-difluoro-3-(3-fluoropropanamido)phenyl)benzamide] | 50 to 100 | 50 to 100 | A (80–100) | – | – | – |
| O=C(CC(F)(F)F)Nc1c(F)ccc(NC(=O)c2cc(NC(=O)[C@H]3[C@H](c4cccc(C(F)(F)F)c4)C3(Cl)Cl)ccc2Cl)c1F [F1738, 2-Chloro-5-((1R,3R)-2,2-dichloro-3-(3-(trifluoromethyl)phenyl)cyclopropane-1-carboxamido)-N-(2,4-difluoro-3-(3,3,3-trifluoropropanamido)phenyl)benzamide] | 50 to 100 | 50 to 100 | A (80–100) | – | – | – |
| CC(=O)Nc1cc(NC(=O)c2cc(NC(=O)[C@H]3[C@H](c4ccc(F)c(C(F)(F)F)c4)C3(Cl)Cl)ccc2Cl)c(F)c(F)c1F [F1743, N-(5-Acetamido-2,3,4-trifluorophenyl)-2-chloro-5-((1R,3R)-2,2-dichloro-3-(4-fluoro-3-(trifluoromethyl)phenyl)cyclopropane-1-carboxamido)benzamide] | 50 to 100 | 50 to 100 | A (80–100) | – | – | – |
| O=C(Nc1cc(NC(=O)C(F)F)c(F)c(F)c1F)c1cc(NC(=O)[C@H]2[C@H](c3ccc(F)c(C(F)(F)F)c3)C2(Cl)Cl)ccc1Cl [F1744, 2-Chloro-5-((1R,3R)-2,2-dichloro-3-(4-fluoro-3-(trifluoromethyl)phenyl)cyclopropane-1-carboxamido)-N-(5-(2,2-difluoroacetamido)-2,3,4-trifluorophenyl)benzamide] | 50 to 100 | 50 to 100 | A (80–100) | – | – | – |
| CC(OCC1CC1)C(=O)Nc1c(F)ccc(NC(=O)c2cc(NC(=O)[C@H]3[C@H](c4ccc(F)c(C(F)(F)F)c4)C3(Cl)Cl)ccc2Cl)c1F (stereo partly drawn) [F1745, 2-Chloro-N-(3-(2-(cyclopropylmethoxy)propanamido)-2,4-difluorophenyl)-5-((1R,3R)-2,2-dichloro-3-(4-fluoro-3-(trifluoromethyl)phenyl)cyclopropane-1-carboxamido)benzamide] | 50 to 100 | 50 to 100 | A (80–100) | – | – | – |
| CC(C)COC(C)C(=O)Nc1c(F)ccc(NC(=O)c2cc(NC(=O)[C@H]3[C@H](c4ccc(F)c(C(F)(F)F)c4)C3(Cl)Cl)ccc2Cl)c1F (stereo partly drawn) [F1746, 2-Chloro-5-((1R,3R)-2,2-dichloro-3-(4-fluoro-3-(trifluoromethyl)phenyl)cyclopropane-1-carboxamido)-N-(2,4-difluoro-3-(2-isobutoxypropanamido)phenyl)benzamide] | 50 to 100 | 50 to 100 | A (80–100) | – | – | – |
| CC(OCC(F)(F)F)C(=O)Nc1c(F)ccc(NC(=O)c2cc(NC(=O)[C@H]3[C@H](c4ccc(F)c(C(F)(F)F)c4)C3(Cl)Cl)ccc2Cl)c1F (stereo partly drawn) [F1747, 2-Chloro-5-((1R,3R)-2,2-dichloro-3-(4-fluoro-3-(trifluoromethyl)phenyl)cyclopropane-1-carboxamido)-N-(2,4-difluoro-3-(2-(2,2,2-trifluoroethoxy)propanamido)phenyl)benzamide] | 50 to 100 | 50 to 100 | A (80–100) | – | – | – |
| CN(C(=O)CC#N)c1c(F)ccc(NC(=O)c2cc(NC(=O)[C@H]3[C@H](c4ccc(F)c(C(F)(F)F)c4)C3(Cl)Cl)ccc2Cl)c1F [F1752, 2-Chloro-N-(3-(2-cyano-N-methylacetamido)-2,4-difluorophenyl)-5-((1R,3R)-2,2-dichloro-3-(4-fluoro-3-(trifluoromethyl)phenyl)cyclopropane-1-carboxamido)benzamide] | 50 to 100 | 50 to 100 | A (80–100) | – | – | – |
| CC(C#N)C(=O)Nc1c(F)ccc(NC(=O)c2cc(NC(=O)[C@H]3[C@H](c4ccc(F)c(C(F)(F)F)c4)C3(Cl)Cl)ccc2Cl)c1F (stereo partly drawn) [F1755, 2-Chloro-N-(3-(2-cyanopropanamido)-2,4-difluorophenyl)-5-((1R,3R)-2,2-dichloro-3-(4-fluoro-3-(trifluoromethyl)phenyl)cyclopropane-1-carboxamido)benzamide] | 50 to 100 | 50 to 100 | B (More than 0 – Less than 80) | – | – | – |
| O=C(Nc1ccc(F)c(I)c1F)c1cc(NC(=O)[C@H]2[C@H](c3ccc(F)c(C(F)(F)F)c3)C2(Cl)Cl)ccc1Cl [F1758, 2-Chloro-5-((1R,3R)-2,2-dichloro-3-(4-fluoro-3-(trifluoromethyl)phenyl)cyclopropane-1-carboxamido)-N-(2,4-difluoro-3-iodophenyl)benzamide] | 50 to 100 | 50 to 100 | A (80–100) | – | – | – |
| CCCC(OCC)C(=O)Nc1c(F)ccc(NC(=O)c2cc(NC(=O)[C@H]3[C@H](c4ccc(F)c(C(F)(F)F)c4)C3(Cl)Cl)ccc2Cl)c1F (stereo partly drawn) [F1759, 2-Chloro-5-((1R,3R)-2,2-dichloro-3-(4-fluoro-3-(trifluoromethyl)phenyl)cyclopropane-1-carboxamido)-N-(3-(2-ethoxypentanamido)-2,4-difluorophenyl)benzamide] | 50 to 100 | 50 to 100 | A (80–100) | – | – | – |
| CC(CC(=O)Nc1c(F)ccc(NC(=O)c2cc(NC(=O)[C@H]3[C@H](c4ccc(F)c(C(F)(F)F)c4)C3(Cl)Cl)ccc2Cl)c1F)C(F)(F)F (stereo partly drawn) [F1760, 2-Chloro-5-((1R,3R)-2,2-dichloro-3-(4-fluoro-3-(trifluoromethyl)phenyl)cyclopropane-1-carboxamido)-N-(2,4-difluoro-3-(4,4,4-trifluoro-3-methylbutanamido)phenyl)benzamide] | 50 to 100 | 50 to 100 | A (80–100) | – | – | – |
| CCN(C(=O)OC(C)(C)C)c1c(F)ccc(NC(=O)c2cc(NC(=O)[C@H]3[C@H](c4ccc(F)c(C(F)(F)F)c4)C3(Cl)Cl)ccc2Cl)c1F [F1761, tert-Butyl (3-(2-chloro-5-((1R,3R)-2,2-dichloro-3-(4-fluoro-3-(trifluoromethyl)phenyl)cyclopropane-1-carboxamido)benzamido)-2,6-difluorophenyl)(ethyl)carbamate] | 50 to 100 | 50 to 100 | A (80–100) | – | – | – |
| C#CCC(=O)N(CC)c1c(F)ccc(NC(=O)c2cc(NC(=O)[C@H]3[C@H](c4ccc(F)c(C(F)(F)F)c4)C3(Cl)Cl)ccc2Cl)c1F [F1763] | 50 to 100 | 50 to 100 | A (80–100) | – | – | – |
| C#CC(C)C(=O)N(CC)c1c(F)ccc(NC(=O)c2cc(NC(=O)[C@H]3[C@H](c4ccc(F)c(C(F)(F)F)c4)C3(Cl)Cl)ccc2Cl)c1F (stereo partly drawn) [F1764] | 50 to 100 | 50 to 100 | A (80–100) | – | – | – |
| O=C(COC(F)(F)F)Nc1c(F)ccc(NC(=O)c2cc(NC(=O)[C@H]3[C@H](c4ccc(Cl)c(Cl)c4)C3(Cl)Cl)ccc2Cl)c1F [F1766, 2-Chloro-5-((1R,3R)-2,2-dichloro-3-(3,4-dichlorophenyl)cyclopropane-1-carboxamido)-N-(2,4-difluoro-3-(2-(trifluoromethoxy)acetamido)phenyl)benzamide] | 50 to 100 | 50 to 100 | A (80–100) | – | – | – |
| CC(OC(F)(F)F)C(=O)Nc1c(F)ccc(NC(=O)c2cc(NC(=O)[C@H]3[C@H](c4ccc(Cl)c(Cl)c4)C3(Cl)Cl)ccc2Cl)c1F (stereo partly drawn) [F1767, 2-Chloro-5-((1R,3R)-2,2-dichloro-3-(3,4-dichlorophenyl)cyclopropane-1-carboxamido)-N-(2,4-difluoro-3-(2-(trifluoromethoxy)propanamido)phenyl)benzamide] | – | – | – | 50 to 100 | 50 to 100 | A (80–100) |
| O=C(COC(F)(F)F)Nc1c(F)ccc(NC(=O)c2cc(NC(=O)[C@H]3[C@H](c4ccc(F)c(Cl)c4)C3(Cl)Cl)ccc2Cl)c1F [F1768, 2-Chloro-5-((1R,3R)-2,2-dichloro-3-(3-chloro-4-fluorophenyl)cyclopropane-1-carboxamido)-N-(2,4-difluoro-3-(2-(trifluoromethoxy)acetamido)phenyl)benzamide] | – | – | – | 50 to 100 | 50 to 100 | A (80–100) |
